Results taken from patent US6936447B1, “Autoinducer molecule” (priority 2000, dated 2005).
Where two headings read alike, the source gives them in different places.

What was measured:
[1] = molecular target: T1, LasR protein (Pseudomonas aeruginosa, UniProt P25084); experiment: Activation of the LasR protein by optical isomers
T1 construct: expressed in transfected cells; host or cells: E. coli MG4 containing pKDT17 (plac-lasR plus lasB::lacZ reporter)

[2] = tested on: lasB promoter activity in E. coli MG4 (pKDT17, lasR + lasB::lacZ); experiment: P. aeruginosa autoinducer bioassay (lasB::lacZ β-galactosidase reporter); type: cell-based; details: for β-galactosidase (lasB::lacZ promoter activity): average of four experiments ± range
Method: (§1) For production of PAI, cultures of P. aeruginosa PAO1 or E. coli TB1 containing pLasI-1 were grown to the late-logarithmic phase in A medium (Maniatis, T., Fritsch, E. F., and Sambrook, J. (1992) Molecular Cloning: A Laboratory Manual, ed. Nolan C. (Cold Spring Harbor Laboratory, Cold Spring Harbor, N.Y.), 2nd Ed) supplemented with 0.4% glucose, 0.05% yeast extract, and 1 mM MgSO4 with shaking at 37° C., unless otherwise specified. For subsequent use in autoinducer bioassays, E. coli MG4 containing pKDT17 was grown in supplemented A medium at 30° C. with shaking, and E. coli VJS533 containing pHV200I^− was grown in L broth (Silhavy, T. J., Berman, M. L. and Enquist, L. W. (1984) Experiments with Gene Fusions (Cold Spring Harbor Lab., Cold Spring Harbor, N.Y.), P. 217) at 30° C. with shaking. For plasmid screening and maintenance, ampicillin (100 μg/ml) was included in E. coli cultures, and carbenicillin (200 ug/ml) was included in cultures of P. aeruginosa.
For the bioassay, overnight cultures of E. coli containing the lasB-promoter reporter, pKDT17 were diluted in supplemented A mediun to an optical density of 0.1 at 660 nm, and stored on ice. Each bioassay consisted of 2 ml of the cell suspension plus the test sample. After 5.5 h at 30° C. with shaking, β-galactosidase activity was measured by the CHCl3-sodium dodecyl sulfate method described by Miller (Miller, J. A. (1976) Experiments in Molecular Genetics (Cold Spring Harbor Lab., Cold Spring Harbor, N.Y.), pp. 352-355). As described in Example 1, there was a linear dose response to autoinducer in this bioassay. Without addition of autoinducer, β-galactosidase activities were 25±10 Miller units, and with saturating amounts of autoinducer, β-galactosidase activities were 1300±200 Miller units. A unit of P. aeruginosa autoinducer activity is defined as that amount required to achieve ½-saturation in the bioassay.

[3] = tested on: V. fischeri luminescence genes (LuxR) in E. coli VJS533 (pHV200I−); experiment: V. fischeri autoinducer bioassay (luminescence); type: cell-based
Method: as §1
The quantitative assay for VAI was based on those described elsewhere (Kaplan, H. B. and Greenberg, E. P. (1985) J. Bacteriol. 163, 1210-1214; Bainton, N. J., Bycroft, B. W., Chhabra, S. R., Stead, P., Gledhill, L., Hill, P. J., Rees, C. E. D., Winson, M. K., Salmond, G. P. C., Stewart, G. S. A. B. and Williams, P. (1992) Gene 116, 87-91; Nealson, K. H. (1977) Arch. Microbiol. 112, 73-79). E. coli VJS533 containing pHV200I^− was used to test for V. fischeri autoinducer activity. The plasmid, pHV200I^− contains all of the V. fischeri genes necessary for autoinducible luminescence in E. coli, however, the gene encoding autoinducer synthase, luxI, is inactivated such that E. coli containing pHV200I^− is not luminescent without addition of VAI. Overnight cultures of E. coli containing pHV200I^− were diluted to an optical density of 0.01 at 660 nm in an assay medium consisting of 0.05% tryptone, 0.03% glycerol, 100 mM NaCl, 50 mM MgSO4, and 10 mM potassium phosphate, pH 7. […] After 3 hours at room temperature, luminescence was measured by using a Beckman LS 1800 Scintillation Counter that was set for single photon counting. […]

[4] = tested on: V. fischeri luminescence genes (LuxR) in E. coli VJS533 (pHV200I−); details: literature (Eberhard et al. 1986), cited from earlier work
[5] = tested on: conjugal transfer genes in Agrobacterium tumefaciens; details: literature (Zhang et al. 1993); cited from earlier work

T1 sequence (P25084 whole entry): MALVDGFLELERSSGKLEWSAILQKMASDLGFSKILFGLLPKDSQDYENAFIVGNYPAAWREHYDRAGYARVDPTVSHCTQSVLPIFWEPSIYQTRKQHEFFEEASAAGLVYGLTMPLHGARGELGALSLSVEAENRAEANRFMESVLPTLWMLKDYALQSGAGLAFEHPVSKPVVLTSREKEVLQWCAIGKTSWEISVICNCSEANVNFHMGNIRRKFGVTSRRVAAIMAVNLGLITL

## CCCCCCCCCC(=O)CC(=O)N[C@H]1CCOC1=O (single isomer, unassigned) [D-isomer, N-(3-oxododecanoyl)homoserine lactone]
[1]
  activity of the isomer (activation of the LasR protein): small amount of activity
[1]; by attaching to the autoinducer binding domain of LasR
  inhibition of the ability of the L-isomer to activate the LasR protein: can inhibit

## CCCC(=O)CC(=O)N[C@H]1CCOC1=O [VAI, N-(3-oxohexanoyl)homoserine lactone]
[2]
  activity as P. aeruginosa autoinducer (inducer of lasB promoter), in words: did not show any detectable activity
[2]; 50 nM autoinducer added
  β-galactosidase (lasB::lacZ promoter activity): 33 +/− 3 Miller units
[2]; 500 nM autoinducer added
  β-galactosidase (lasB::lacZ promoter activity): 34 +/− 1 Miller units
[2]; concentrations as high as 1 uM
  activity in the P. aeruginosa autoinducer bioassay: no detectable activity
[3]
  concentration giving maximal response in the V. fischeri autoinducer bioassay: about 50 nM
[3]; synthetic VAI standard curve, read-out: half-maximal response in V. fischeri autoinducer bioassay (one unit of activity)
  EC50: ~0.025 µM

## CCCCCC(=O)CC(=O)NC1CCOC1=O (centres unmarked) [AAI, N-(3-oxooctanoyl)homoserine lactone]
[2]
  activity as P. aeruginosa autoinducer (inducer of lasB promoter), in words: considerable activity
[2]; 50 nM autoinducer added
  β-galactosidase (lasB::lacZ promoter activity): 56 +/− 5 Miller units
[2]; 500 nM autoinducer added
  β-galactosidase (lasB::lacZ promoter activity): 733 +/− 50 Miller units
[2]; relative to PAI
  concentration required for activity as the P. aeruginosa autoinducer, compared with PAI: higher
  maximal response as P. aeruginosa autoinducer, compared with PAI: lower
[4]
  activity with V. fischeri LuxR / luminescence genes: shows activity
[4]; listed as N-(3-oxooctanoyl)homoserine lactone
  activity with V. fischeri LuxR / luminescence genes: some activity
[5]
  activity as the A. tumefaciens autoinducer: shows activity

## CCCCCCCCCC(=O)CC(=O)NC1CCOC1=O [N-(3-oxododecanoyl) L-homoserine lactone, N-(3-oxododecanoyl)homoserine lactone]
[1]
  activity of the isomer (activation of the LasR protein): active form
[2]
  activity as P. aeruginosa autoinducer (inducer of lasB promoter), in words: biologically active
[2]; Escherichia coli, read-out: half-maximal response in P. aeruginosa autoinducer bioassay
  EC50: 0.003 to 0.005 µM
[3]; HPLC fractions of PAI peaks
  VAI activity (induction of luminescence) of HPLC peaks: no significant VAI activity
